≈ marks a conversion by molar mass, not a printed value.
What was measured:
HeLa [1] = test: Inhibitory effect on replication of RNA virus coxsB-4 in HeLa cell line.; type: functional, cell-based; conditions: Homo sapiens
Vero [2] = test: Inhibitory effect on replication of RNA virus SFV in Vero cell line; type: functional, cell-based; conditions: Chlorocebus sabaeus
MT4 [3] = test: Inhibitory effect on replication of RNA virus cell growth in MT-4 cell line.; type: functional, cell-based; conditions: Homo sapiens
HEL [4] = test: Inhibitory effect on replication of DNA virus CMV (AD-169) on HEL cell line.; type: functional, cell-based; conditions: Homo sapiens
HEL [5] = test: Inhibitory effect on replication of DNA virus CMV (Davis) on HEL cell line.; type: functional, cell-based; conditions: Homo sapiens
PRK [6] = test: Inhibitory effect on replication of RNA virus VSV in PRK cell line.; type: functional, cell-based; conditions: Oryctolagus cuniculus
MT4 [7] = test: Inhibitory effect on replication of DNA virus RNA virus HIV-2 in MT-4 cell line.; type: functional, cell-based; conditions: Homo sapiens
HeLa [8] = test: Inhibitory effect on replication of RNA virus VSV in HeLa cell line.; type: functional, cell-based; conditions: Homo sapiens
Vero [9] = test: Inhibitory effect on replication of RNA virus PV-3 in Vero cell line.; type: functional, cell-based; conditions: Chlorocebus sabaeus
MDCK [10] = test: cells; conditions: Canis lupus familiaris
MDCK [11] = test: Inhibitory effect on replication of RNA virus cell morphology in MDCK cell line.; type: functional, cell-based; conditions: Canis lupus familiaris
Vero [12] = test: Inhibitory effect on replication of RNA virus reo-1 in Vero cell line.; type: functional, cell-based; conditions: Chlorocebus sabaeus
[13] = Inhibitory effect on replication of DNA virus HSV-1 (KOS) in PRK cell line.; type: functional, cell-based; conditions: Oryctolagus cuniculus
PRK [14] = test: Inhibitory effect on replication of RNA virus cell morphology in PRK cell line.; type: functional, cell-based; conditions: Oryctolagus cuniculus
HeLa [15] = test: Inhibitory effect on replication of RNA virus RSV in HeLa cell line; type: functional, cell-based; conditions: Homo sapiens
Vero [16] = test: Inhibitory effect on replication of RNA virus SV in Vero cell line.; type: functional, cell-based; conditions: Chlorocebus sabaeus
MDCK [17] = test: cells; conditions: Canis lupus familiaris; remark: listed apart in the source
Vero [18] = test: Inhibitory effect on replication of RNA virus JV in Vero cell line.; type: functional, cell-based; conditions: Chlorocebus sabaeus
MT4 [19] = test: Inhibitory effect on replication of DNA virus RNA virus HIV-1 in MT-4 cell line.; type: functional, cell-based; conditions: Homo sapiens
[20] = Inhibitory effect on replication of DNA virus HSV-2 (G) in PRK cell line.; type: functional, cell-based; conditions: Oryctolagus cuniculus
Vero [21] = test: Inhibitory effect on replication of RNA virus protein synthesis in Vero cell line.; type: functional, cell-based; conditions: Chlorocebus sabaeus
Vero [22] = test: Inhibitory effect on replication of RNA virus measles on Vero cell line.; type: functional, cell-based; conditions: Chlorocebus sabaeus
HeLa [23] = test: cells; conditions: Homo sapiens
Vero [24] = test: Inhibitory effect on replication of RNA virus coxsB-4 in Vero cell line; type: functional, cell-based; conditions: Chlorocebus sabaeus
HeLa [25] = test: Inhibitory effect on replication of RNA virus cell morphology in HeLa cell line.; type: functional, cell-based; conditions: Homo sapiens
Vero [26] = test: Inhibitory effect on replication of RNA virus RNA synthesis in Vero cell line.; type: functional, cell-based; conditions: Chlorocebus sabaeus
PRK [27] = test: Inhibitory effect on replication of DNA virus VV on PRK cell line.; type: functional, cell-based; conditions: Oryctolagus cuniculus
PRK [28] = test: Inhibitory effect on replication of DNA virus Cell morphology on PRK cell line; type: functional, cell-based; conditions: Oryctolagus cuniculus
Vero [29] = test: Inhibitory effect on replication of RNA virus TV in Vero cell line.; type: functional, cell-based; conditions: Chlorocebus sabaeus
Vero [30] = test: Inhibitory effect on replication of RNA virus cell morphology in Vero cell line.; type: functional, cell-based; conditions: Chlorocebus sabaeus
HEL [31] = test: Inhibitory effect on replication of DNA virus TK-VZV (YSR) on HEL cell line.; type: functional, cell-based; conditions: Homo sapiens
HEL [32] = test: Inhibitory effect on replication of DNA virus VZV (Oka) on HEL cell line.; type: functional, cell-based; conditions: Homo sapiens
HEL [33] = test: Inhibitory effect on replication of DNA virus VZV (YS) on HEL cell line.; type: functional, cell-based; conditions: Homo sapiens
HEL [34] = test: Inhibitory effect on replication of DNA virus Cell growth on HEL cell line.; type: functional, cell-based; conditions: Homo sapiens
HEL [35] = test: Inhibitory effect on replication of DNA virus TK-VZV (07-1) on HEL cell line.; type: functional, cell-based; conditions: Homo sapiens
MT4 [36] = test: Inhibitory effect on replication of RNA virus HIV-2 in MT-4 cell line.; type: functional, cell-based; conditions: Homo sapiens
MT4 [37] = test: Inhibitory effect on replication of RNA virus HIV-1 in MT-4 cell line.; type: functional, cell-based; conditions: Homo sapiens

Row | Structure (SMILES) | IC50 (HeLa [1]) [µg/mL] | IC50 (Vero [2]) [µg/mL] | IC50 (MT4 [3]) [µg/mL] | IC50 (HEL [4]) [µg/mL] | IC50 (HEL [5]) [µg/mL] | IC50 (PRK [6]) [µg/mL] | IC50 (HeLa [8]) [µg/mL] | IC50 (Vero [9]) [µg/mL] | IC50 (MDCK [10]) [µg/mL] | IC50 (MDCK [11]) [µg/mL] | IC50 (Vero [12]) [µg/mL] | IC50 [13] [µg/mL] | IC50 (PRK [14]) [µg/mL] | IC50 (HeLa [15]) [µg/mL] | IC50 (Vero [16]) [µg/mL] | IC50 (MDCK [17]) [µg/mL] | IC50 (Vero [18]) [µg/mL] | IC50 [20] [µg/mL] | IC50 (Vero [22]) [µg/mL] | IC50 (HeLa [23]) [µg/mL] | further results
1 | C=CC1=C[C@@H](n2cnc3c(N)ncnc32)[C@H](O)[C@@H]1O | > 400 | > 200 | 6 (≈ 23.1 µM) | 18 (≈ 69.4 µM) | 17 (≈ 65.6 µM) | 20 (≈ 77.1 µM) | 300 (≈ 1160 µM) | 40 (≈ 154 µM) | > 100 | > 100 | 70 (≈ 270 µM) | > 200 | > 400 | 100 (≈ 386 µM) | > 200 | > 100 | 8 (≈ 30.9 µM) | > 200 | 40 (≈ 154 µM) | > 400 | IC50 (MT4 [7]): > 8 µg/mL; IC50 (MT4 [19]): > 8 µg/mL; IC50 (Vero [21]): 47 µg/mL (≈ 181 µM); IC50 (Vero [24]): > 200 µg/mL; IC50 (HeLa [25]): > 400 µg/mL; IC50 (Vero [26]): 14 µg/mL (≈ 54 µM); IC50 (PRK [27]): 20 µg/mL (≈ 77.1 µM); IC50 (PRK [28]): > 400 µg/mL; IC50 (Vero [29]): 10 µg/mL (≈ 38.6 µM); IC50 (Vero [30]): 400 µg/mL (≈ 1540 µM)
2 | COCC1=C[C@@H](n2cnc3c(N)ncnc32)[C@H](O)[C@@H]1O | > 200 | > 400 | 45 (≈ 162 µM) | 40 (≈ 144 µM) | 25 (≈ 90.2 µM) | 20 (≈ 72.1 µM) | 150 (≈ 541 µM) | 70 (≈ 252 µM) | > 100 | > 100 | 10 (≈ 36.1 µM) | > 400 | > 400 | 100 (≈ 361 µM) | 70 (≈ 252 µM) | > 100 | 20 (≈ 72.1 µM) | > 400 | 40 (≈ 144 µM) | > 200 | IC50 (HEL [31]): 60 µg/mL (≈ 216 µM); IC50 (HEL [32]): 200 µg/mL (≈ 721 µM); IC50 (HEL [33]): 300 µg/mL (≈ 1080 µM); IC50 (HEL [34]): 200 µg/mL (≈ 721 µM); IC50 (HEL [35]): 100 µg/mL (≈ 361 µM); IC50 (MT4 [36]): > 40 µg/mL; IC50 (MT4 [37]): > 40 µg/mL; IC50 (Vero [24]): > 400 µg/mL; IC50 (HeLa [25]): > 400 µg/mL; IC50 (PRK [27]): 20 µg/mL (≈ 72.1 µM); IC50 (PRK [28]): > 400 µg/mL; IC50 (Vero [29]): 20 µg/mL (≈ 72.1 µM); IC50 (Vero [30]): 400 µg/mL (≈ 1440 µM)

From ChEMBL document CHEMBL1126278, “New neplanocin analogues. 1. Synthesis of 6'-modified neplanocin A derivatives as broad-spectrum antiviral agents” (J Med Chem, 1992)
